The test system of assay [1] is P. aeruginosa PAM1154 carrying pUCP24 vector (PAM4175). Nature of the assay: MIC, CLSI broth microdilution. It counts as cell-based. To be noted: Pseudomonas aeruginosa, drug alone. The text has this:
The effects of KPC mutations on resistance to various antibiotics were investigated. For these studies, pUCP24 plasmids carrying wild-type and mutant blaKPC-2 genes as well as the pUCP24 vector were transformed into PAM1154, an efflux-deficient strain of Pseudomonas aeruginosa. In this host, the effect of β-lactamases on β-lactam MIC is amplified due to the slowed uptake of β-lactams across the low-permeability outer membrane without interference by efflux of either β-lactams or BLIs. Consequently, this host allows detection of β-lactamase activity (as an MIC increase) of low-catalytic-efficiency enzymes that rely heavily on the low permeability of the outer membrane. Using the strain that lacks efflux pumps ensures no interference from efflux in interpreting results. We next evaluated the steady-state protein expression levels in bacterial cells. […] The observed discrepancy with our results could be attributed to the difference in either the expression vector or host bacteria.
(§1) For microbiological studies, wild-type blaKPC-2 and its mutant variants were cloned into the shuttle vector pUCP24. Resulting plasmids were transformed in the efflux-deficient strain of P. aeruginosa PAM1154 using selection on 15 μg/ml of gentamicin. Using a strain of P. aeruginosa as opposed to E. coli as a host for various cloned genes was based on the following consideration. As well documented elsewhere ([41]), P. aeruginosa has a low-permeability outer membrane; consequently, the effect of β-lactamases on MIC is amplified in P. aeruginosa compared to that in E. coli due to the slowed uptake of β-lactams. Thus, this host is appropriate to detect β-lactamase activity (as an MIC increase) of low-catalytic-efficiency enzymes that rely heavily on low permeability of the outer membrane. […] MICs were determined using the Clinical and Laboratory Standards Institute (CLSI) broth microdilution method as described in CLSI document M07-A11 ([42]). Potentiation of antibiotic activity by various BLIs in bacterial strains carrying wild-type (WT) and mutant KPC-2 genes was performed using standard checkerboard methodology ([43]). BLI potency was defined as PV50 (PV, potentiation value). PV50 is the minimal concentration of a BLI that is required to reduce the antibiotic MIC to the middle of the MIC range (E50) where the highest MIC is the MIC for a KPC-producing strain with no inhibitor added and the lowest MIC is the MIC for the vector-only strain, corresponding to the complete inhibition of KPC. E50 is calculated as the square root of the product of the antibiotic MICs for the KPC-producing and the vector-only strains.
(In general: Broth dilution looks for growth in wells or tubes with falling amounts of substance.)

For assay [2], the system named is P. aeruginosa PAM1154 carrying pUCP24-KPC-2::D179Y (PAM4639). In words: MIC, CLSI broth microdilution. It counts as cell-based, Pseudomonas aeruginosa. To be noted: for MIC: Pseudomonas aeruginosa, PAM4639, pUCP24-KPC-2::D179Y, drug alone.
Text: (§2) The effects of KPC mutations on resistance to various antibiotics were investigated. For these studies, pUCP24 plasmids carrying wild-type and mutant blaKPC-2 genes as well as the pUCP24 vector were transformed into PAM1154, an efflux-deficient strain of Pseudomonas aeruginosa. In this host, the effect of β-lactamases on β-lactam MIC is amplified due to the slowed uptake of β-lactams across the low-permeability outer membrane without interference by efflux of either β-lactams or BLIs. Consequently, this host allows detection of β-lactamase activity (as an MIC increase) of low-catalytic-efficiency enzymes that rely heavily on the low permeability of the outer membrane. Using the strain that lacks efflux pumps ensures no interference from efflux in interpreting results. We next evaluated the steady-state protein expression levels in bacterial cells.
as §1, with “Potentiation of antibiotic activity by various BLIs in bacterial strains carrying wild-type (WT) and mutant KPC-2 genes was performed using standard checkerboard methodology ([43]).” left out

Assay [3] deals with P. aeruginosa PAM1154 carrying pUCP24-KPC-2::L169P (PAM4751). In words: MIC, CLSI broth microdilution. In kind it is cell-based, Pseudomonas aeruginosa. The following applies: for MIC: Pseudomonas aeruginosa, PAM4751, pUCP24-KPC-2::L169P, drug alone.
Text: as §2
as §1, with “Potentiation of antibiotic activity by various BLIs in bacterial strains carrying wild-type (WT) and mutant KPC-2 genes was performed using standard checkerboard methodology ([43]).” left out

Assay [4] deals with P. aeruginosa PAM1154 carrying KPC-2::L169P (PAM4751). In words: Checkerboard potentiation of antibiotic activity by BLIs. The following applies: for Beta-lactam MIC in the presence of BLI: PAM4751 KPC-2 L169P. In kind it is cell-based, Pseudomonas aeruginosa.
Text: (§3) BLI potency was defined as PV50 (PV, potentiation value) of antibiotic potentiation. PV50 is the concentration of a BLI that is required to reduce the antibiotic MIC to the middle of the MIC range where the highest MIC is the MIC for a KPC-producing strain with no inhibitor added and the lowest MIC is the MIC for the vector-alone strain, which corresponds to complete inhibition of KPC. As a given MIC is directly related to the β-lactamase activity, PV50 might be considered the concentration of a BLI that is required to achieve half-effect of inhibition of β-lactamase activity (in whole cells) to hydrolyze an antibiotic of interest. […] However, the accurate determination of PV50 requires the MIC range to be relatively wide.
as §1, with “Potentiation of antibiotic activity by various BLIs in bacterial strains carrying wild-type (WT) and mutant KPC-2 genes was performed using standard checkerboard methodology ([43]).” left out
(§4) […]
(§5) […]

The test system of assay [5] is P. aeruginosa PAM1154 carrying wild-type KPC-2 (PAM4135). The assay is described as above. It counts as cell-based, Pseudomonas aeruginosa. To be noted: PAM4135 KPC-2.
Text: as §3
as §1, with “Potentiation of antibiotic activity by various BLIs in bacterial strains carrying wild-type (WT) and mutant KPC-2 genes was performed using standard checkerboard methodology ([43]).” left out
as §4, §5

SMILES strings stand for the structures.

On to `O=C(O)C[C@@H]1CC[C@H](NC(=O)Cc2cccs2)B(O)O1` [Vaborbactam, vaborbactam], for which the MIC in assay [1], in assay [2] and in assay [3] was more than 256 µg/mL each time. In addition, in assay [4] (L169P, depending on the antibiotic), the “reduction of potency to enhance ceftazidime, cefepime or piperacillin vs wild-type KPC-2” value is reported as “no more than 2 fold”. Besides, the PV50 in assay [4] (PAM4751 KPC-2::L169P, potentiation of cefepime) is 1 µg/mL; in assay [4] (PAM4751 KPC-2::L169P, potentiation of ceftazidime), 1 µg/mL; in assay [4] (PAM4751 KPC-2::L169P, potentiation of piperacillin) it was 1 µg/mL; in assay [5] (potentiation of cefepime), 0.5 µg/mL; in assay [5] (potentiation of ceftazidime) it was 0.5 µg/mL; in assay [5] (potentiation of piperacillin), 1 µg/mL.

Regarding `CO/N=C(\C(=O)N[C@@H]1C(=O)N2C(C(=O)[O-])=C(C[N+]3(C)CCCC3)CS[C@H]12)c1csc(N)n1` [Cefepime, cefepime], the MIC (in general, the smallest concentration in the dilution series that meets the test's criterion for growth inhibition) in assay [1] is 0.125 µg/mL; in assay [2], 64 µg/mL; in assay [3] it was 64 µg/mL. Further, the “reduction of MIC vs wild-type KPC-2 strain” value in assay [2] (D179Y strain) and in assay [3] (L169P strain) was 4 fold throughout. Also, the “increase of MIC vs vector-only strain” value in assay [2] ({}) and in assay [3] ({}) was 512 fold throughout. Moreover, the “Antibiotic MIC with avibactam at 4 μg/ml” value in assay [4] (PAM4751 KPC-2::L169P, avibactam 4 μg/ml) was 0.5 µg/mL. Further, the “Antibiotic MIC, No BLI” value was 32 µg/mL in assay [4] (PAM4751 KPC-2::L169P, no BLI) and 64 µg/mL in assay [5] (no BLI). Also, the “Beta-lactam MIC in the presence of BLI” value stood at 32 µg/mL in assay [4] (avibactam 0 µg/ml); 32 µg/mL in assay [4] (avibactam 0.008 µg/ml); 32 µg/mL in assay [4] (avibactam 0.031 µg/ml); 32 µg/mL in assay [4] (avibactam 0.06 µg/ml); 4 µg/mL in assay [4] (avibactam 0.5 µg/ml); 2 µg/mL in assay [4] (avibactam 1 µg/ml). Besides, the “Beta-lactam MIC in the presence of BLI” value in assay [4] (avibactam 2 µg/ml) was found to be 1 µg/mL; in assay [4] (avibactam 4 µg/ml), 0.5 µg/mL; in assay [4] (vaborbactam 0 µg/ml), 32 µg/mL; in assay [4] (vaborbactam 0.008 µg/ml), 32 µg/mL; in assay [4] (vaborbactam 0.031 µg/ml) it was 32 µg/mL; in assay [4] (vaborbactam 0.06 µg/ml) it was 32 µg/mL. Besides, the “Beta-lactam MIC in the presence of BLI” value was 4 µg/mL in assay [4] (vaborbactam 0.5 µg/ml); 0.5 µg/mL in assay [4] (vaborbactam 1 µg/ml); 64 µg/mL in assay [5] (avibactam 0 µg/ml); 64 µg/mL in assay [5] (avibactam 0.008 µg/ml); 64 µg/mL in assay [5] (avibactam 0.031 µg/ml); 32 µg/mL in assay [5] (avibactam 0.06 µg/ml). In addition, the “Beta-lactam MIC in the presence of BLI” value in assay [5] (avibactam 0.5 µg/ml) was 0.5 µg/mL; in assay [5] (vaborbactam 0 µg/ml) it was 64 µg/mL; in assay [5] (vaborbactam 0.008 µg/ml), 64 µg/mL; in assay [5] (vaborbactam 0.031 µg/ml), 64 µg/mL; in assay [5] (vaborbactam 0.06 µg/ml), 64 µg/mL; in assay [5] (vaborbactam 0.5 µg/ml), 2 µg/mL.
